Results on one molecule are retold here after patent US11730712B2, “Functionalized long-chain hydrocarbon mono- and di-carboxylic acids and derivatives thereof, and their use for the prevention or treatment of disease” (ESPERVITA THERAPEUTICS, INC., priority 2021, dated 2023).

The data set relates to Acyl-CoA synthetase activity in rat liver microsomes. Put plainly: Synthesis of CoA derivatives in rat liver microsomes (LCMS). To be noted: 1 mM substrate, 30 min sample vs 0 min. (Liver microsomes are vesicles of endoplasmic reticulum, rich in cytochrome P450 enzymes.)

Method: Prior to the experiment a 1 mM working stock was created in primary hepatocyte media which was used to create the final dilution series of 0 (vehicle), 0.3, 1, 3, 10, and 30 μM. The final concentration of DMSO in all samples was <1%.
For initial validation of ACS activity using palmitate, 14C-palmitate was added (0.5 μCi/ml). Each sample was equilibrated at 37° C. while shaking for 10 min before the reaction was initiated by the addition of 0.04 mg of rat microsomal preparation (ThermoFisher Scientific. Cat #RTM-CPL, Lot #RT060-A) followed by incubation for 1, 3, 10, or 30 mins. Time 0 sample with no added microsomes was used as a control. The reaction was stopped by immediately placing the reaction tube on ice followed by the rapid addition of the reaction mixture to 2.25 ml ice-cold isopropanol/heptane/2M-sulfuric acid (40:10:1, vol/vol) in a 5 ml glass vial. […] For studies that involved measurement of 14C Palmitoyl-CoA formation, 200 μl of the lower aqueous phase was added to the 5 ml of scintillation fluid and the number of DPMs were determined by liquid scintillation counting for 5 minutes using a LS6500 Liquid Scintillation Counter (Beckman Coulter). […]
The reaction products were ionized by electrospray ion source (ESI) in positive mode. […] The resulting mass spectra were analyzed using the Xcalibur 2.1 Qualitative software package. […]

Regarding `CC(C)(CCCc1ccc(CCCC(C)(C)C(=O)SCCNC(=O)CCNC(=O)[C@H](O)C(C)(C)COP(=O)(O)OP(=O)(O)OC[C@H]2O[C@@H](n3cnc4c(N)ncnc43)[C@H](O)[C@@H]2OP(=O)(O)O)cc1)C(=O)O` [III-1-CoA, 5-[4-(4-Carboxy-4-methylpentyl)-phenyl]-2,2-dimethylpentanoic acid Coenzyme A ester], the “formation of the CoA derivative, detection by LCMS” value is on record as “could not be confirmed using fragmentation analysis”.
